Reference: ChEMBL document CHEMBL3046497, “Synthesis and antitubercular activity of novel pyrazolequinazolinone hybrid analogs” (2013)
Converted amounts (≈) assume the structure as drawn.

How the values were obtained:
Assay type in all cases: functional
[1] = test system: Mycobacterium tuberculosis; test: Antitubercular activity against Mycobacterium tuberculosis H37Rv assessed as growth inhibition by secondary screen assay
[2] = test system: Mycobacterium tuberculosis; test: Antitubercular activity against Mycobacterium tuberculosis H37Rv assessed as growth inhibition at <6.25 ug/ml by primary screen assay
[3] = test system: Mycobacterium tuberculosis; test: Antitubercular activity against Mycobacterium tuberculosis H37Rv assessed as growth inhibition by primary screen assay
[4] = test system: Mycobacterium tuberculosis; test: Antitubercular activity against Mycobacterium tuberculosis H37Rv assessed as growth inhibition at >6.25 ug/ml by primary screen assay

SMILES	MIC [1]	inhibition (INH) [2]	MIC [3]	inhibition (INH) [4]
Cc1ccc(-n2cc(/C=N/n3c(-c4ccccc4C)nc4ccccc4c3=O)c(-c3ccncc3)n2)cc1	< 3.12 µg/mL	94%	< 6.25 µg/mL	
Cc1ccc(-n2cc(/C=N/n3c(-c4cccc(C)c4)nc4ccccc4c3=O)c(-c3ccncc3)n2)cc1			> 6.25 µg/mL	70%
Cc1ccc(-c2nc3ccccc3c(=O)n2/N=C/c2cn(-c3ccc(C)cc3)nc2-c2ccncc2)cc1			> 6.25 µg/mL	67%
COc1ccccc1-c1nc2ccccc2c(=O)n1/N=C/c1cn(-c2ccc(C)cc2)nc1-c1ccncc1	< 3.12 µg/mL	93%	< 6.25 µg/mL	
COc1cccc(-c2nc3ccccc3c(=O)n2/N=C/c2cn(-c3ccc(C)cc3)nc2-c2ccncc2)c1			> 6.25 µg/mL	64%
COc1ccc(-c2nc3ccccc3c(=O)n2/N=C/c2cn(-c3ccc(C)cc3)nc2-c2ccncc2)cc1			> 6.25 µg/mL	59%
Cc1ccc(-n2cc(/C=N/n3c(-c4ccccc4[N+](=O)[O-])nc4ccccc4c3=O)c(-c3ccncc3)n2)cc1			> 6.25 µg/mL	73%
Cc1ccc(-n2cc(/C=N/n3c(-c4cccc([N+](=O)[O-])c4)nc4ccccc4c3=O)c(-c3ccncc3)n2)cc1	< 3.12 µg/mL	92%	< 6.25 µg/mL	
Cc1ccc(-n2cc(/C=N/n3c(-c4ccc([N+](=O)[O-])cc4)nc4ccccc4c3=O)c(-c3ccncc3)n2)cc1			> 6.25 µg/mL	67%
Cc1ccc(-n2cc(/C=N/n3c(-c4ccccc4Cl)nc4ccccc4c3=O)c(-c3ccncc3)n2)cc1	< 3.12 µg/mL	96%	< 6.25 µg/mL	
Cc1ccc(-n2cc(/C=N/n3c(-c4cccc(Cl)c4)nc4ccccc4c3=O)c(-c3ccncc3)n2)cc1			> 6.25 µg/mL	68%
Cc1ccc(-n2cc(/C=N/n3c(-c4ccc(Cl)cc4)nc4ccccc4c3=O)c(-c3ccncc3)n2)cc1	< 3.12 µg/mL	90%	< 6.25 µg/mL	
NNC(=O)c1ccncc1 [ISONIAZID]	0.125 µg/mL (≈ 0.911 µM)		< 6.25 µg/mL	
